# Assay results from BindingDB's records for patent US20250313563 (The Broad Institute, 2025).
# Where “and” joins values, the source holds several entries; their conditions need not be identical. Equal entries are not always repeated.
# Experiments:
# [1] = molecular target: Glycogen synthase kinase-3 alpha (Homo sapiens, UniProt P49840); test: TR-FRET Assay
# Outline: (§1)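 Enzyme and test compound were first incubated together for 30 minutes in assay buffer. The kinase reaction followed and was stopped with EDTA. The pSer641 signal was read by time-resolved FRET.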
# [2] = molecular target: Glycogen synthase kinase-3 beta (Homo sapiens, UniProt P49841); test: TR-FRET Assay
# Outline: as §1
# Sequence of Glycogen synthase kinase-3 alpha (P49840 whole entry): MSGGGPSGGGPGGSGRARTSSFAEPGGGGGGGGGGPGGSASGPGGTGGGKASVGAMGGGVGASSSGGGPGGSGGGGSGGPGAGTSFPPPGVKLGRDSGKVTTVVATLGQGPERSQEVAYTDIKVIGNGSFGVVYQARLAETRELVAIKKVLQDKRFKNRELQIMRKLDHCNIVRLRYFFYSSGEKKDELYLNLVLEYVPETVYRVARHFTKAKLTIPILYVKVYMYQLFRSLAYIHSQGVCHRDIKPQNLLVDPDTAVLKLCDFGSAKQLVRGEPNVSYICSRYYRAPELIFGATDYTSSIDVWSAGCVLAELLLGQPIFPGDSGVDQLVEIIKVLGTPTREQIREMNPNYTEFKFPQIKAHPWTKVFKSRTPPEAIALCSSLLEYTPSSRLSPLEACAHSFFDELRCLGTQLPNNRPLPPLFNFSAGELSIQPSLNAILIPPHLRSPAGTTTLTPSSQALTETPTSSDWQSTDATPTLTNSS
# Sequence of Glycogen synthase kinase-3 beta (P49841 whole entry): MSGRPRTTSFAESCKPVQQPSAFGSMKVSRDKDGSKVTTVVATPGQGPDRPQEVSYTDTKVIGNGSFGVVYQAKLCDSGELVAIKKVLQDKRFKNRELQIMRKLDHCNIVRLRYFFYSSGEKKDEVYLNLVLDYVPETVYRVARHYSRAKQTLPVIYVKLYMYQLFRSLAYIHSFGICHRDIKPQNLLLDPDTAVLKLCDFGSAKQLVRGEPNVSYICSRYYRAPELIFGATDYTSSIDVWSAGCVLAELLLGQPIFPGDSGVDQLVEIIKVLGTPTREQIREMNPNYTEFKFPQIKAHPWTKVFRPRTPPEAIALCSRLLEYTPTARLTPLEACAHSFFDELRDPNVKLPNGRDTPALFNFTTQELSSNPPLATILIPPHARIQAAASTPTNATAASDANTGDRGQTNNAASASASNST
Structure (SMILES),IC50 [1],IC50 [2]
"CC[C@]1(c2cccc(-c3cn(C)nc3C(C)C)c2)C2=CN=NC2NC2=C1C(=O)NC(C)(C)C2 (some centres undefined) [US20250313563, Compound 949106]",1 to 5 µM,> 5 µM
"CC[C@]1(c2cccc(N3CCCCC3)c2)C2=CN=NC2NC2=C1C(=O)CC(C)(C)C2 (some centres undefined) [US20250313563, Compound 810371]",> 5 µM,> 5 µM
"CC[C@]1(c2cccc(Oc3ncccn3)c2)C2=C(CC(C)(C)NC2=O)NC2N=NC(Cl)=C21 (some centres undefined) [US20250313563, Compound 951606]",< 0.1 µM,< 0.1 µM and 0.1 to 1 µM
"CCC1(c2cccc(-c3ccnc(C)c3)c2)C2=CN=NC2NC2=C1C(=O)CC(C)(C)C2 (centres undefined) [US20250313563, Compound 840857]",< 0.1 µM,0.1 to 1 µM
"CC[C@@]1(c2cccc(C(F)(F)F)c2)C2=CN=NC2NC2=C1C(=O)C[C@@]1(CCN(C)C1=O)C2 (some centres undefined) [US20250313563, Compound 950326]",< 0.1 µM,0.1 to 1 µM
"CC1(C)CC(=O)C2=C(C1)NC1=C(CN=N1)[C@@]21COC2(CN(C(=O)C3CCCC3)C2)C1 [US20250313563, Compound 943957]",< 0.1 µM,< 0.1 µM
"CC[C@]1(c2cccc(-c3cc(C)ncc3F)c2)C2=C(CC(C)(C)NC2=O)NC2N=NC(C(F)(F)F)=C21 (some centres undefined) [US20250313563, Compound 949644]",0.1 to 1 µM,1 to 5 µM
"CC[C@]1(c2cccc(OC)c2)C2=C(CC(C)(C)NC2=O)NC2N=NC(C)=C21 (some centres undefined) [US20250313563, Compound 949328]",1 to 5 µM,> 5 µM
"CC[C@@]1(c2cccc(-c3cnn4c3CCCC4)c2)C2=CN=NC2NC2=C1C(=O)NC(C)(C)C2 (some centres undefined) [US20250313563, Compound 947410]",< 0.1 µM and 0.1 to 1 µM,0.1 to 1 µM and > 5 µM
"CC(=O)N1CC[C@@]2(C1)C[C@@]1(CO2)C2=C(N=NC2)NC2=C1C(=O)CC(C)(C)C2 [US20250313563, Compound 948320]",0.1 to 1 µM,1 to 5 µM
"CC[C@]1(c2cccc(-c3c(C)nn(C)c3C)c2)C2=C(CC(C)(C)NC2=O)NC2N=NC(C(F)(F)F)=C21 (some centres undefined) [US20250313563, Compound 948417]",0.1 to 1 µM,1 to 5 µM
"CCC1(c2cccc(N(C)c3ncccn3)c2)C2=C(CC(C)(C)NC2=O)NC2N=NC(C)=C21 (centres undefined) [US20250313563, Compound 948175]",< 0.1 µM,< 0.1 µM
"CCC1(c2cccc(N(C)c3ccc(C)nc3)c2)C2=CN=NC2NC2=C1C(=O)CC(C)(C)C2 (centres undefined) [US20250313563, Compound 918272]",0.1 to 1 µM,0.1 to 1 µM
"CC[C@]1(c2cccc(C(F)(F)F)c2)C2=CN=NC2NC2=C1C(=O)N(c1cnc(OC)nc1)[C@@H](C)C2 (some centres undefined) [US20250313563, Compound 949354]",0.1 to 1 µM,1 to 5 µM
"CC1OCCC12C1=C(N=NC1)NC1=C2C(=O)CC(C)(C)C1 (centres undefined) [US20250313563, Compound 911958]",> 5 µM,> 5 µM
"CC(C)c1nc(S(=O)(=O)N2CCC3(CC2)C2=C(N=NC2)NC2=C3C(=O)CC(C)(C)C2)cn1C [US20250313563, Compound 945663]",< 0.1 µM,< 0.1 µM
"C[C@H]1CC(=O)C2=C(C1)NC1=C(CN=N1)[C@@]2(C)c1ccccc1 [US20250313563, Compound 789334]",0.1 to 1 µM,1 to 5 µM
"CC[C@@]1(c2cccc(-c3cc(C)ncc3C)c2)C2=CN=NC2NC2=C1C(=O)CC(C)(C)C2 (some centres undefined) [US20250313563, Compound 943515]",1 to 5 µM,> 5 µM
"CC[C@@]1(c2cccc(Cc3ncccc3C(F)(F)F)c2)C2=CN=NC2NC2=C1C(=O)CC(C)(C)C2 (some centres undefined) [US20250313563, Compound 947665]",1 to 5 µM,> 5 µM
"CCC1(c2cccc(-c3ccnc(C(C)(C)C)c3)c2)C2=CN=NC2NC2=C1C(=O)CC(C)(C)C2 (centres undefined) [US20250313563, Compound 947490]",0.1 to 1 µM,1 to 5 µM
"CCc1cc(-c2cccc(C3(CC)C4=CN=NC4NC4=C3C(=O)CC(C)(C)C4)c2)cc(CC)n1 (centres undefined) [US20250313563, Compound 929445]",1 to 5 µM,> 5 µM
"CC[C@]1(c2cccc(N(C)c3cccc(C(C)(F)F)c3)c2)C2=CN=NC2NC2=C1C(=O)CC(C)(C)C2 (some centres undefined) [US20250313563, Compound 927345]",> 5 µM,> 5 µM
"CCC1(c2cccc(-c3ccnnc3)c2)C2=CN=NC2NC2=C1C(=O)CC(C)(C)C2 (centres undefined) [US20250313563, Compound 927342]",< 0.1 µM,< 0.1 µM
"CC(C)c1ccccc1S(=O)(=O)N1CCC2(CC1)C1=C(N=NC1)NC1=C2C(=O)CC(C)(C)C1 [US20250313563, Compound 947473]",0.1 to 1 µM,0.1 to 1 µM
"CC[C@]1(c2cccc(Br)c2)C2=CN=NC2NC2=C1C(=O)CC(C)(C)C2 (some centres undefined) [US20250313563, Compound 790733]",0.1 to 1 µM,1 to 5 µM
"CC[C@]1(c2cccc(-c3cc(OC)ncc3F)c2)C2=CN=NC2NC2=C1C(=O)CC(C)(C)C2 (some centres undefined) [US20250313563, Compound 944035]",1 to 5 µM,> 5 µM

Structure (SMILES),IC50 [1],IC50 [2]
"CCC1(c2cccc(N3CCN(C)CC3)c2)C2=CN=NC2NC2=C1C(=O)CC(C)(C)C2 (centres undefined) [US20250313563, Compound 810379]",> 1.67 µM,> 5 µM
"COc1ccc(S(=O)(=O)N2CCC3(CC2)C2=C(N=NC2)NC2=C3C(=O)CC(C)(C)C2)c(F)c1 [US20250313563, Compound 947255]",< 0.1 µM,< 0.1 µM and 0.1 to 1 µM
"CC1(C)CC(=O)C2=C(C1)NC1N=NC(C(F)(F)F)=C1[C@]21CCc2c(F)cccc21 (some centres undefined) [US20250313563, Compound 806569]",< 0.1 µM,< 0.1 µM
"CCC1(c2cccc(-c3ccnc(OC)n3)c2)C2=CN=NC2NC2=C1C(=O)CC(C)(C)C2 (centres undefined) [US20250313563, Compound 948092]",< 0.1 µM,< 0.1 µM
"CCC1(c2cccc(N3[C@H](C)CCC[C@@H]3C)c2)C2=CN=NC2NC2=C1C(=O)CC(C)(C)C2 (some centres undefined) [US20250313563, Compound 865172]",0.1 to 1 µM,1 to 5 µM
"CCC1(c2cccc(SC)c2)C2=CN=NC2NC2=C1C(=O)CC(C)(C)C2 (centres undefined) [US20250313563, Compound 810508]",< 0.1 µM,0.1 to 1 µM
"Cn1cncc1-c1cccc([C@@]2(C)C3=C(CC(C)(C)CC3=O)NC3=C2C(CC(C)(C)C)N=N3)c1 (some centres undefined) [US20250313563, Compound 126015]",> 5 µM,> 5 µM
"CC(C)Oc1ccc(S(=O)(=O)N2CCC3(CC2)C2=C(N=NC2)NC2=C3C(=O)CC(C)(C)C2)cc1 [US20250313563, Compound 945673]",< 0.1 µM,< 0.1 µM
"CC1N=NC2=C1C1(CC3(CCC3)C1)C1=C(CC(C)(C)CC1=O)N2 (centres undefined) [US20250313563, Compound 877295]",> 5 µM,> 5 µM
"CC[C@@]1(c2cccc(-c3ccnc(C)c3C)c2)C2=CN=NC2NC2=C1C(=O)NC(C)(C)C2 (some centres undefined) [US20250313563, Compound 948184]",< 0.1 µM and 0.1 to 1 µM,0.1 to 1 µM and 1 to 5 µM
"CC[C@]1(c2ccccc2)C2=CN=NC2NC2=C1C(=O)CC(C)(C)[C@H]2F (some centres undefined) [US20250313563, Compound 957197]",0.1 to 1 µM and > 5 µM,1 to 5 µM and > 5 µM
"CC[C@@]1(c2cccc(C3CC3)c2)C2=CN=NC2NC2=C1C(=O)CC(C)(C)C2 (some centres undefined) [US20250313563, Compound 811557]",< 0.1 µM and 0.1 to 1 µM,< 0.1 µM and 1 to 5 µM
"CC[C@@]1(c2cccc(-c3cc(C(C)C)nn3C)c2)C2=CN=NC2NC2=C1C(=O)NC(C)(C)C2 (some centres undefined) [US20250313563, Compound 951842]",0.1 to 1 µM,1 to 5 µM
"CCC1(c2cccc(Br)c2)C2=C(N=NC2)NC2=C1C(=O)CC(C)(C)C2 (centres undefined) [US20250313563, Compound 789312]",< 0.1 µM,0.1 to 1 µM
"CCC1(c2cccc(N(C)c3cccc(C)n3)c2)C2=CN=NC2NC2=C1C(=O)CC(C)(C)C2 (centres undefined) [US20250313563, Compound 913255]",< 0.1 µM,0.1 to 1 µM
"CC[C@]1(c2cccc(-c3ccnc(C)c3)c2)C2=CN=NC2NC2=C1C(=O)N[C@@H](C)C2 (some centres undefined) [US20250313563, Compound 926299]",1 to 5 µM,> 5 µM
"CCC1(CC)C2=C(N=NC2)NC2=C1C(=O)CC(C)(C)C2 [US20250313563, Compound 810505]",1 to 5 µM,> 5 µM
"CCC1(c2cccc(S(=O)(=O)c3ccccc3)c2)C2=CN=NC2NC2=C1C(=O)CC(C)(C)C2 (centres undefined) [US20250313563, Compound 913123]",< 0.1 µM,< 0.1 µM and 0.1 to 1 µM
"CC[C@@]1(c2cccc(-c3ccnc(C)c3)c2)C2=C(CC(C)(C)CC2=O)NC2N=NC(C(F)(F)F)=C21 (some centres undefined) [US20250313563, Compound 917289]",0.1 to 1 µM,1 to 5 µM
"CCC1(c2cccc(C(C)c3ncccn3)c2)C2=CN=NC2NC2=C1C(=O)CC(C)(C)C2 (centres undefined) [US20250313563, Compound 947434]",< 0.1 µM,0.1 to 1 µM
"CC[C@@]1(c2cccc(C(F)(F)F)c2)C2=CN=NC2NC2=C1C(=O)N(c1ccccc1)C2 (some centres undefined) [US20250313563, Compound 945377]",0.1 to 1 µM,1 to 5 µM
"CCC1(c2cccc(N3CCCC3)c2)C2=C(CC(C)(C)CC2=O)NC2N=NC(C(F)(F)F)=C21 (centres undefined) [US20250313563, Compound 810506]",< 0.1 µM,< 0.1 µM
"CC[C@]1(c2cccc(-c3cnn(C(F)F)c3)c2)C2=CN=NC2NC2=C1C(=O)NC(C)(C)C2 (some centres undefined) [US20250313563, Compound 948816]",> 5 µM,> 5 µM
"CC1(C)CC(=O)C2=C(C1)NC1=C(CN=N1)C21CCN(S(=O)(=O)c2cnn3ccccc23)CC1 [US20250313563, Compound 947615]",< 0.1 µM,< 0.1 µM
"CC[C@@]1(c2cccc(NS(C)(=O)=O)c2)C2=CN=NC2NC2=C1C(=O)CC(C)(C)C2 (some centres undefined) [US20250313563, Compound 927348]",< 0.1 µM,< 0.1 µM
"CCC1(c2cccc(N3CCCC3=O)c2)C2=CN=NC2NC2=C1C(=O)CC(C)(C)C2 (centres undefined) [US20250313563, Compound 865171]",< 0.1 µM,0.1 to 1 µM
